By IC50 is commonly meant the midpoint of a concentration-inhibition curve.

Active and inactive are the calls of the source. No cut-off for these calls is given here.

The test system of the first assay is 4T1-Luc. Kind of assay: Antitumor activity against mouse 4T1-Luc cells xenografted in BALB/C mouse assessed as delay in tumor growth at 10 mg/kg, ip dosed once a week for 15 days. It counts as functional, organism-based. The note with it: time 15.0 day.
Consider `CC(=O)O[C@H]1C(=O)[C@@]2(C)[C@H]([C@H](OC(=O)c3ccccc3)[C@]3(O)C[C@H](OC(=O)[C@H](O)[C@@H](NC(=O)c4ccccc4)c4ccccc4)C(C)=C1C3(C)C)[C@]1(OC(C)=O)CO[C@@H]1C[C@@H]2O`, for which the result was Active.

A further assay relates to 4T1. Nature of the assay: Induction of apoptosis in 4T1 cells assessed as necrotic cells at 5 uM incubated for 48 hrs by Annexin V-FITC/PI staining based flow cytometry (reference value: 0.20 %). The assay is classed as functional, Mus musculus.
Settings: not given
For the compound `Cc1cc(N2CCOCC2)ccc1Nc1nc(NC2CCCCC2)c2nc[nH]c2n1`, the Activity amounted to 0.54%.

The subject of the next assay is 4T1. Nature of the assay: Induction of apoptosis in 4T1 cells assessed as late apoptotic cells at 5 uM incubated for 48 hrs by Annexin V-FITC/PI staining based flow cytometry (reference value: 1.73 %). The assay is classed as functional, Mus musculus.
Settings: not given
As to `Cc1cc(N2CCOCC2)ccc1Nc1nc(NC2CCCCC2)c2nc[nH]c2n1`, the Activity came to 9.86%.

The next assay deals with 4T1. Nature of the assay: Induction of apoptosis in 4T1 cells assessed as early apoptotic cells at 5 uM incubated for 48 hrs by Annexin V-FITC/PI staining based flow cytometry (reference value: 0.32 %). The assay is classed as functional, Mus musculus.
Settings: not given
(In general: In flow cytometry, cells or beads pass a laser one at a time.)
As to `Cc1cc(N2CCOCC2)ccc1Nc1nc(NC2CCCCC2)c2nc[nH]c2n1`, the Activity is on record as 1.56%.

The test system of a further assay is MCF7. Kind of assay: Induction of apoptosis in human MCF7 cells assessed as necrotic cells at 5 uM incubated for 48 hrs by Annexin V-FITC/PI staining based flow cytometry (reference value: 0.03 %). It counts as functional.
Settings: not given
On to `Cc1cc(N2CCOCC2)ccc1Nc1nc(NC2CCCCC2)c2nc[nH]c2n1`, for which the Activity was 0.35%.

For another assay, the system named is MCF7. Kind of assay: Induction of apoptosis in human MCF7 cells assessed as late apoptotic cells at 5 uM incubated for 48 hrs by Annexin V-FITC/PI staining based flow cytometry (reference value: 0.63 %).
Settings: not given
The assay is classed as functional.
As to `Cc1cc(N2CCOCC2)ccc1Nc1nc(NC2CCCCC2)c2nc[nH]c2n1`, the Activity was found to be 4.31%.

A further assay relates to MCF7. Kind of assay: Induction of apoptosis in human MCF7 cells assessed as early apoptotic cells at 5 uM incubated for 48 hrs by Annexin V-FITC/PI staining based flow cytometry (reference value: 1.19 %). It counts as functional.
Settings: not given
With `Cc1cc(N2CCOCC2)ccc1Nc1nc(NC2CCCCC2)c2nc[nH]c2n1`, the Activity is 5.46%.

The target in the next assay is T1, Dual specificity protein kinase TTK (Homo sapiens, UniProt P33981).
T1 sequence (P33981 whole entry): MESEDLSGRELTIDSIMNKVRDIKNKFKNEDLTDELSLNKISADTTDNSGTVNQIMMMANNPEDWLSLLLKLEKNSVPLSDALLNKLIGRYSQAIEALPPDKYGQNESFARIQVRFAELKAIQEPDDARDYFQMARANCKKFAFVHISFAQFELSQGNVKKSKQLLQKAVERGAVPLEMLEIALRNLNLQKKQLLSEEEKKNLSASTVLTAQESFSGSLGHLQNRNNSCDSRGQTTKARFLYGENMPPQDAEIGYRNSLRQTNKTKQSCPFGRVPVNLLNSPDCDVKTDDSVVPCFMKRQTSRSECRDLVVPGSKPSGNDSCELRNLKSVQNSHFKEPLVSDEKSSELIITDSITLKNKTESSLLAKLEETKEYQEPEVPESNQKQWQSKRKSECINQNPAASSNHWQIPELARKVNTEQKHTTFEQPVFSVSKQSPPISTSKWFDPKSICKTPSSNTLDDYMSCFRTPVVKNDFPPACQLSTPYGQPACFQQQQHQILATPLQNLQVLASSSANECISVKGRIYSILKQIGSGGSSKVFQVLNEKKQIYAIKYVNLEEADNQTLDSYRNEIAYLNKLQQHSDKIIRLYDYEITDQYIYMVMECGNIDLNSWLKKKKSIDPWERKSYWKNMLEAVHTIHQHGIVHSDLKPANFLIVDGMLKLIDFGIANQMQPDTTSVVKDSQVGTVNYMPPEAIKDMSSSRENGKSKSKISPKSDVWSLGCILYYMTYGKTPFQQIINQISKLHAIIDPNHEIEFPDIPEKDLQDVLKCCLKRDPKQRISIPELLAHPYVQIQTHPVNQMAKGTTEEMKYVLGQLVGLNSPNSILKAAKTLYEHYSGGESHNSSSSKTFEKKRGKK
Nature of the assay: Inhibition of Mps1 (unknown origin) incubated for 120 mins in presence of substrate/ATP by ADP-Glo assay.
Settings: not given
(ADP-Glo first removes unused ATP, then detects ADP through luciferase.)
In the case of `Cc1cc(N2CCN(C)CC2)ccc1Nc1nc(-n2nc(N)c3ccccc32)c2cc[nH]c2n1`, the IC50 was 41 nM.

Turning to `c1ccc2c(c1)ncn2-c1nc(Nc2ccc(N3CCOCC3)cc2)nc2[nH]ccc12`, the IC50 was 47 nM.

Consider `COc1cc(N2CCOCC2)ccc1Nc1nc(-n2cnc3ccccc32)c2cc[nH]c2n1`, for which the IC50 was 40 nM.

Take `COc1cc(N2CCOCC2)ccc1Nc1nc(-n2nc(N)c3ccccc32)c2cc[nH]c2n1`: the IC50 worked out at 33 nM.

With `Nc1nn(-c2nc(Nc3ccccc3OC(F)(F)F)nc3[nH]ccc23)c2ccccc12`, the concentration for half-maximal inhibition (IC50) was 154 nM.

On to `c1cc2c(ccn2-c2nc(Nc3ccc(N4CCOCC4)cc3)nc3[nH]ccc23)cn1`, for which the IC50 was 464 nM.

As to `Nc1nn(-c2nc(Nc3ccccc3)nc3[nH]ccc23)c2ccccc12`, the IC50 was determined as 106 nM.

On to `CN1CCN(c2ccc(Nc3nc(-n4ccc5ccccc54)c4cc[nH]c4n3)cc2)CC1`, for which the IC50 was found to be 137 nM.

On to `CCN1CCN(c2ccc(Nc3nc(-n4nc(N)c5ccccc54)c4cc[nH]c4n3)cc2)CC1`, for which the IC50 amounted to 32 nM.

For the compound `CCc1ccccc1Nc1nc(-n2nc(N)c3ccccc32)c2cc[nH]c2n1`, the IC50 was determined as 338 nM.

With `CN1CCN(c2ccc(Nc3nc(-n4nc(N)c5ccccc54)c4cc[nH]c4n3)cc2Cl)CC1`, the IC50 was 50 nM.

As to `COc1cc(N2CCOCC2)ccc1Nc1nc(-n2ccc3ccccc32)c2cc[nH]c2n1`, the IC50 worked out at 132 nM.

For the compound `Nc1nn(-c2nc(Nc3ccccc3Cl)nc3[nH]ccc23)c2ccccc12`, the IC50 was 68 nM.

`Nc1nn(-c2nc(Nc3ccccc3F)nc3[nH]ccc23)c2ccccc12`: the IC50 worked out at 54 nM.

With `Cn1cc(-c2nc(Nc3ccc(N4CCOCC4)cc3)nc3[nH]ccc23)cn1`, the half-inhibitory concentration (IC50) came to 49 nM.

With `CN1CCN(c2ccc(Nc3nc(-c4cnn(C)c4)c4cc[nH]c4n3)cc2)CC1`, the IC50 came out at 67 nM.

As for `COc1ccccc1Nc1nc(-n2nc(N)c3ccccc32)c2cc[nH]c2n1`, the IC50 is 51 nM.

As to `CN1CCN(c2ccc(Nc3nc(-n4nc(N)c5ccccc54)c4cc[nH]c4n3)cc2F)CC1`, the IC50 is 35 nM.

Take `CN1CCN(c2ccc(Nc3nc(-n4ccc5cnccc54)c4cc[nH]c4n3)cc2)CC1`: the IC50 is 149 nM.

Take `CN1CCN(c2ccc(Nc3nc(-n4cnc5ccccc54)c4cc[nH]c4n3)cc2)CC1`: the IC50 came out at 83 nM.

As for `Nc1nn(-c2nc(Nc3ccc(N4CCOCC4)cc3)nc3[nH]ccc23)c2ccccc12`, the IC50 is 49 nM.

In the case of `COc1cc(N2CCOCC2)ccc1Nc1nc(-n2ccc3cnccc32)c2cc[nH]c2n1`, the IC50 came to 154 nM.

In the case of `c1ccc2c(c1)ccn2-c1nc(Nc2ccc(N3CCOCC3)cc2)nc2[nH]ccc12`, the IC50 came to 144 nM.

For `COc1cc(N2CCOCC2)ccc1Nc1nc(-c2cnn(C)c2)c2cc[nH]c2n1`, the IC50 was determined as 34 nM.

Source of the values: ChEMBL document CHEMBL5385847, “Design, synthesis and biological evaluation of a new class of 7H-pyrrolo[2,3-d]pyrimidine derivatives as Mps1 inhibitors for the treatment of breast cancer” (Eur J Med Chem, 2023).
